# Source: PubChem BioAssay AID192 (DTP/NCI, 2004)
# “And” between values parts separate entries of the source, which are not always exact repeats. Equal values may be shown once. Toxic doses and inconclusive results are not listed.
# Tested on: BDF1 mice, B16 melanoma ip, median survival T/C
# Assay: NCI In Vivo Anticancer Drug Screen. Data for tumor model B16 Melanoma (intraperitoneal) in B6D2F1 (BDF1) mice
# Settings: endpoint: median survival time, higher = longer survival
# Method in brief: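 Compounds were tested in mice carrying transplantable tumors. Survival or tumor size was recorded, and each value is the treated-group measurement (T) divided by that of the vehicle-treated control group (C).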
# [1] = dose: 100.0 mg/kg/injection, schedule: Q01DX009 (ip), vehicle: Klucel (hydroxypropylcellulose) (HPC)
smiles,measurement,setting,value
CC(C)N(CCCC#N)C(C)C,T/C,"dose: 25.0 mg/kg/injection, schedule: Q01DX009 (ip), vehicle: saline with Tween-80",91 % of control
same,T/C,"dose: 50.0 mg/kg/injection, schedule: Q01DX009 (ip), vehicle: saline with Tween-80",102 % of control
same,T/C,"dose: 100.0 mg/kg/injection, schedule: Q01DX009 (ip), vehicle: saline with Tween-80",100 % of control
c1ccc(C2CCCCCC2)cc1,T/C,"dose: 6.25 mg/kg/injection, schedule: Q01DX009 (ip), vehicle: other",108 % of control
same,T/C,"dose: 12.5 mg/kg/injection, schedule: Q01DX009 (ip), vehicle: other",98 % of control
same,T/C,"dose: 25.0 mg/kg/injection, schedule: Q01DX009 (ip), vehicle: other",111 % of control
same,T/C,"dose: 50.0 mg/kg/injection, schedule: Q01DX009 (ip), vehicle: other",109 % of control
same,T/C,"dose: 100.0 mg/kg/injection, schedule: Q01DX009 (ip), vehicle: other",89 % of control
CCN(CC)CCOc1ccc(Br)cc1,T/C,"dose: 12.5 mg/kg/injection, schedule: Q01DX009 (ip), vehicle: Klucel (hydroxypropylcellulose) (HPC)",96 % of control
same,T/C,"dose: 50.0 mg/kg/injection, schedule: Q01DX009 (ip), vehicle: Klucel (hydroxypropylcellulose) (HPC)",87 % of control and 98 % of control
CC(N)Cc1ccc(O)cc1 (stereo not drawn),T/C,"dose: 12.5 mg/kg/injection, schedule: Q01DX009 (ip), vehicle: saline",102 % of control
same,T/C,"dose: 25.0 mg/kg/injection, schedule: Q01DX009 (ip), vehicle: saline",110 % of control
same,T/C,"dose: 50.0 mg/kg/injection, schedule: Q01DX009 (ip), vehicle: saline",100 % of control
same,T/C,"dose: 100.0 mg/kg/injection, schedule: Q01DX009 (ip), vehicle: saline",105 % of control
same,T/C,"dose: 200.0 mg/kg/injection, schedule: Q01DX009 (ip), vehicle: saline",100 % of control
c1ccc2c(c1)[As]=c1ccccc1=[As]2 (stereo not drawn),T/C,"dose: 0.75 mg/kg/injection, schedule: Q01DX009 (ip), vehicle: saline with Tween-80",104 % of control
same,T/C,"dose: 1.5 mg/kg/injection, schedule: Q01DX009 (ip), vehicle: saline with Tween-80",106 % of control
same,T/C,"dose: 3.0 mg/kg/injection, schedule: Q01DX009 (ip), vehicle: saline with Tween-80",100 % of control
same,T/C,"dose: 6.0 mg/kg/injection, schedule: Q01DX009 (ip), vehicle: saline with Tween-80",110 % of control
C=C1C(=O)OC2C=C(C)C3C(O)CC(C)(O)C3CC12 (stereo not drawn),T/C,[1],88 % of control
CCCCCCCCCCCC(=O)CCC,T/C,[1],93 % of control
same,T/C,"dose: 200.0 mg/kg/injection, schedule: Q01DX009 (ip), vehicle: Klucel (hydroxypropylcellulose) (HPC)",91 % of control
same,T/C,"dose: 400.0 mg/kg/injection, schedule: Q01DX009 (ip), vehicle: Klucel (hydroxypropylcellulose) (HPC)",90 % of control
COc1cc2c(cc1OC)C(C#N)N(C(=O)c1ccccc1)C=C2 (stereo not drawn),T/C,"dose: 0.1 mg/kg/injection, schedule: Q01DX009 (ip), vehicle: other",102 % of control
same,T/C,"dose: 0.19 mg/kg/injection, schedule: Q01DX009 (ip), vehicle: other",104 % of control
same,T/C,"dose: 0.38 mg/kg/injection, schedule: Q01DX009 (ip), vehicle: other",107 % of control
same,T/C,"dose: 0.75 mg/kg/injection, schedule: Q01DX009 (ip), vehicle: other",111 % of control
same,T/C,"dose: 1.5 mg/kg/injection, schedule: Q01DX009 (ip), vehicle: other",112 % of control
O=NNc1ccc(Cl)cn1,T/C,"dose: 1.5 mg/kg/injection, schedule: Q01DX009 (ip), vehicle: water",104 % of control
same,T/C,"dose: 3.0 mg/kg/injection, schedule: Q01DX009 (ip), vehicle: water",118 % of control
same,T/C,"dose: 24.0 mg/kg/injection, schedule: Q01DX009 (ip), vehicle: water",161 % of control
CC1OC(OCC2OC(Oc3c(-c4ccc(O)c(OS(=O)(=O)O)c4)oc4cc(O)cc(O)c4c3=O)C(O)C(O)C2O)C(O)C(O)C1O (stereo not drawn),T/C,"dose: 4.0 mg/kg/injection, schedule: Q01DX009 (ip), vehicle: saline",101 % of control
same,T/C,"dose: 8.0 mg/kg/injection, schedule: Q01DX009 (ip), vehicle: saline",105 % of control
same,T/C,"dose: 16.0 mg/kg/injection, schedule: Q01DX009 (ip), vehicle: saline",101 % of control
same,T/C,"dose: 32.0 mg/kg/injection, schedule: Q01DX009 (ip), vehicle: saline",100 % of control
same,T/C,"dose: 64.0 mg/kg/injection, schedule: Q01DX009 (ip), vehicle: saline",103 % of control
O=C(Nc1ccccc1Cl)Oc1ccc(-c2ccccc2)cc1Br,T/C,"dose: 100.0 mg/kg/injection, schedule: Q04DX003 (ip), vehicle: Klucel (hydroxypropylcellulose) (HPC)",100 % of control
same,T/C,"dose: 200.0 mg/kg/injection, schedule: Q04DX003 (ip), vehicle: Klucel (hydroxypropylcellulose) (HPC)",103 % of control
same,T/C,"dose: 400.0 mg/kg/injection, schedule: Q04DX003 (ip), vehicle: Klucel (hydroxypropylcellulose) (HPC)",93 % of control
CC[C@@]1(O)C(=O)OCc2c1cc1n(c2=O)Cc2cc3cc(O)ccc3nc2-1,T/C,"dose: 0.2 mg/kg/injection, schedule: Q01DX009 (ip), vehicle: other",157 % of control
same,T/C,"dose: 0.39 mg/kg/injection, schedule: Q01DX009 (ip), vehicle: other",151 % of control
same,T/C,"dose: 0.79 mg/kg/injection, schedule: Q01DX009 (ip), vehicle: other",179 % of control
same,T/C,"dose: 1.57 mg/kg/injection, schedule: Q01DX009 (ip), vehicle: other",184 % of control
